Results from patent US4755513A, “Antimicrobial 1-substituted phenyl-4-oxoquinoline-3-carboxylic acid compounds” (Otsuka Pharmaceutical Company, Limited, priority 1985, dated 1988).
Where two headings read alike, the source gives them in different places.

Legend:
[1] = test system: Staphylococcus pyrogens IID S-23; assay: MIC by serial dilution method on agar plate; assay type: cell-based
Text: (§1) The microorganisms were used in a concentration of 1×10^8 cells/ml (O.D. 660 mμ, 0.07-0.16) and 1×10^6 cells/ml (100 folds dilution).

[2] = test system: Staphylococcus aureus FDA 209P; assay: MIC by serial dilution method on agar plate; assay type: cell-based
Text: as §1

[3] = test system: Serratia marcescens IFO 12648; assay: MIC by serial dilution method on agar plate; assay type: cell-based
Text: (§2) Chemotherapy, 22, 1126-1128 (1974)]. The microorganisms were used in a concentration of 1×10^8 cells/ml (O.D. 660 mμ, 0.07-0.16) and 1×10^6 cells/ml (100 folds dilution).

[4] = test system: Escherichia coli NIHJ JC-2; assay: MIC by serial dilution method on agar plate; assay type: cell-based
Text: as §2

[5] = test system: Bacillus subtilis ATCC 6633; assay: MIC by serial dilution method on agar plate; assay type: cell-based
Text: as §2

[6] = test system: Pseudomonas aeruginosa ATCC 10145; assay: MIC by serial dilution method on agar plate; assay type: cell-based
Text: as §2

Escherichia coli No. 29 = assay: MIC by serial dilution method on agar plate; assay type: cell-based
Text: as §2

[7] = test system: Pseudomonas aeruginosa E-2; assay: MIC by serial dilution method on agar plate; assay type: cell-based
Text: as §2

[8] = test system: Proteus morganii IID Kono; assay: MIC by serial dilution method on agar plate; assay type: cell-based
Text: as §2

[9] = test system: Streptococcus faecalis IFO 12580; assay: MIC by serial dilution method on agar plate; assay type: cell-based
Text: as §2

[10] = test system: Klebsiella pneumoniae NCTC 9632; assay: MIC by serial dilution method on agar plate; assay type: cell-based
Text: as §2

[11] = test system: Acinetobacter calcoaceticus AC-54; assay: MIC by serial dilution method on agar plate; assay type: cell-based
Text: as §2

[12] = test system: Proteus inconstans IFO 12930; assay: MIC by serial dilution method on agar plate; assay type: cell-based
Text: as §2

[13] = Absorption by oral administration in monkey (plasma concentration, thin layer cup bio-assay); assay type: in vivo; conditions: 10 mg/kg;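 further: plasma concentration in γ/ml (µg/mL) rather than the printed ng/mL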
Experimental: The test compounds were dissolved in 0.1N hydrochloric acid or suspended in 0.5% sodium carboxymethyl cellulose solution. The solution or suspension was administered into stomach of monkey (two monkeys) with cathetel. After the administration of test compounds, the blood was collected from the lower limbs vein at a fixed interval with a syringe treated with heparin. The collected blood was centrifuged at 3,000 r.p.m. for 10 minutes to separate the plasma. The concentration of the test compound was measured by a thin layer cup method (a bio-assay), wherein Bacillus subtilis ATCC 6633 was used as a bacteria for determination. Based on a standard curve, the concentration of test compound in plasma was calculated.

With “6,8-Difluoro-1-(4-hydroxyphenyl)-7-(1-piperazinyl)-1,4-dihydro-4-oxoquinoline-3-carboxylic acid [Example 2]” the “minimum inhibitory concentration (MIC)” value ([1]; 1 × 10^8 cells/ml) was 12.5, the “minimum inhibitory concentration (MIC)” value ([2]; 1 × 10^6 cells/ml) was 0.195 and the “minimum inhibitory concentration (MIC)” value ([2]; 1 × 10^8 cells/ml) was 0.39. The “minimum inhibitory concentration (MIC)” value ([3]; 1 × 10^6 cells/ml) was 0.097, the “minimum inhibitory concentration (MIC)” value ([3]; 1 × 10^8 cells/ml) was 0.195 and the “minimum inhibitory concentration (MIC)” value ([4]; 1 × 10^6 cells/ml) was less than 0.048. The “minimum inhibitory concentration (MIC)” value ([4]; 1 × 10^8 cells/ml) was less than 0.048, the “minimum inhibitory concentration (MIC)” value ([5]; 1 × 10^6 cells/ml) was 0.097 and the “minimum inhibitory concentration (MIC)” value ([5]; 1 × 10^8 cells/ml) was 0.195. For the same compound, the “minimum inhibitory concentration (MIC)” value ([6]; 1 × 10^6 cells/ml) was 0.781, the “minimum inhibitory concentration (MIC)” value ([6]; 1 × 10^8 cells/ml) was 1.56 and the “minimum inhibitory concentration (MIC)” value (Escherichia coli No. 29; 1 × 10^6 cells/ml) was less than 0.048. The “minimum inhibitory concentration (MIC)” value (Escherichia coli No. 29; 1 × 10^8 cells/ml) was less than 0.048, the “minimum inhibitory concentration (MIC)” value ([7]; 1 × 10^6 cells/ml) was 0.781 and the “minimum inhibitory concentration (MIC)” value ([7]; 1 × 10^8 cells/ml) was 1.56. For the same compound, the “minimum inhibitory concentration (MIC)” value ([8]; 1 × 10^6 cells/ml) was 0.048, the “minimum inhibitory concentration (MIC)” value ([8]; 1 × 10^8 cells/ml) was 0.097 and the “minimum inhibitory concentration (MIC)” value ([9]; 1 × 10^6 cells/ml) was 3.12. The “minimum inhibitory concentration (MIC)” value ([9]; 1 × 10^8 cells/ml) was 6.25, the “minimum inhibitory concentration (MIC)” value ([10]; 1 × 10^6 cells/ml) was less than 0.048 and the “minimum inhibitory concentration (MIC)” value ([10]; 1 × 10^8 cells/ml) was less than 0.048. The “minimum inhibitory concentration (MIC)” value ([11]; 1 × 10^6 cells/ml) was 0.195, the “minimum inhibitory concentration (MIC)” value ([11]; 1 × 10^8 cells/ml) was 0.39 and the “minimum inhibitory concentration (MIC)” value ([12]; 1 × 10^6 cells/ml) was 0.195. For the same compound, the “minimum inhibitory concentration (MIC)” value ([12]; 1 × 10^8 cells/ml) was 0.39.

For `CN1CCN(c2c(F)cc3c(=O)c(C(=O)O)cn(-c4ccc(O)cc4)c3c2F)CC1` [Test Compd. No. 1, 6,8-Difluoro-1-(4-hydroxyphenyl)-7-(4-methyl-1-piperazinyl)-1,4-dihydro-4-oxoquinoline-3-carboxylic acid], the “minimum inhibitory concentration (MIC)” value ([1]; 1 × 10^6 cells/ml) was 0.39, the “minimum inhibitory concentration (MIC)” value ([1]; 1 × 10^8 cells/ml) was 0.781 and the “minimum inhibitory concentration (MIC)” value ([2]; 1 × 10^6 cells/ml) was less than 0.048. For the same compound, the “minimum inhibitory concentration (MIC)” value ([2]; 1 × 10^8 cells/ml) was less than 0.048, the concentration at 0.5 h ([13]; Run 1, 0.5 hour, read-out: Amount of test compd. in plasma) was 2350 ng/mL and the concentration at 1 h ([13]; Run 1, 1 hour, read-out: Amount of test compd. in plasma) was 4260 ng/mL. It also gave a concentration at 2 h ([13]; Run 1, 2 hour, read-out: Amount of test compd. in plasma) of 1940 ng/mL, a concentration at 4 h ([13]; Run 1, 4 hour, read-out: Amount of test compd. in plasma) of 720 ng/mL and a concentration at 7 h ([13]; Run 1, 7 hour, read-out: Amount of test compd. in plasma) of less than 200 ng/mL. It also gave a concentration at 24 h ([13]; Run 1, 24 hour, read-out: Amount of test compd. in plasma) of less than 200 ng/mL, a concentration at 0.5 h ([13]; Run 2, 0.5 hour, read-out: Amount of test compd. in plasma) of less than 200 ng/mL and a concentration at 1 h ([13]; Run 2, 1 hour, read-out: Amount of test compd. in plasma) of 2180 ng/mL. It also gave a concentration at 2 h ([13]; Run 2, 2 hour, read-out: Amount of test compd. in plasma) of 1120 ng/mL, a concentration at 4 h ([13]; Run 2, 4 hour, read-out: Amount of test compd. in plasma) of 1120 ng/mL and a concentration at 7 h ([13]; Run 2, 7 hour, read-out: Amount of test compd. in plasma) of less than 200 ng/mL. The concentration at 24 h ([13]; Run 2, 24 hour, read-out: Amount of test compd. in plasma) was less than 200 ng/mL, the concentration at 0.5 h ([13]; average of two runs, 0.5 hour, read-out: Amount of test compd. in plasma, Average) was less than 1370 ng/mL and the concentration at 1 h ([13]; average of two runs, 1 hour, read-out: Amount of test compd. in plasma, Average) was 3220 ng/mL. The concentration at 2 h ([13]; average of two runs, 2 hour, read-out: Amount of test compd. in plasma, Average) was 1530 ng/mL, the concentration at 4 h ([13]; average of two runs, 4 hour, read-out: Amount of test compd. in plasma, Average) was 920 ng/mL and the concentration at 7 h ([13]; average of two runs, 7 hour, read-out: Amount of test compd. in plasma, Average) was less than 390 ng/mL. For the same compound, the concentration at 24 h ([13]; average of two runs, 24 hour, read-out: Amount of test compd. in plasma, Average) was less than 390 ng/mL, the “minimum inhibitory concentration (MIC)” value ([3]; 1 × 10^6 cells/ml) was less than 0.048 and the “minimum inhibitory concentration (MIC)” value ([3]; 1 × 10^8 cells/ml) was less than 0.048. The “minimum inhibitory concentration (MIC)” value ([4]; 1 × 10^6 cells/ml) was less than 0.048, the “minimum inhibitory concentration (MIC)” value ([4]; 1 × 10^8 cells/ml) was less than 0.048 and the “minimum inhibitory concentration (MIC)” value ([5]; 1 × 10^6 cells/ml) was less than 0.048. The “minimum inhibitory concentration (MIC)” value ([5]; 1 × 10^8 cells/ml) was less than 0.048, the “minimum inhibitory concentration (MIC)” value ([6]; 1 × 10^6 cells/ml) was 0.195 and the “minimum inhibitory concentration (MIC)” value ([6]; 1 × 10^8 cells/ml) was 0.39. For the same compound, the “minimum inhibitory concentration (MIC)” value (Escherichia coli No. 29; 1 × 10^6 cells/ml) was less than 0.048, the “minimum inhibitory concentration (MIC)” value (Escherichia coli No. 29; 1 × 10^8 cells/ml) was less than 0.048 and the “minimum inhibitory concentration (MIC)” value ([7]; 1 × 10^6 cells/ml) was 0.097. The “minimum inhibitory concentration (MIC)” value ([7]; 1 × 10^8 cells/ml) was 0.195, the “minimum inhibitory concentration (MIC)” value ([8]; 1 × 10^6 cells/ml) was less than 0.048 and the “minimum inhibitory concentration (MIC)” value ([8]; 1 × 10^8 cells/ml) was 0.097. The “minimum inhibitory concentration (MIC)” value ([9]; 1 × 10^6 cells/ml) was 0.097, the “minimum inhibitory concentration (MIC)” value ([9]; 1 × 10^8 cells/ml) was 0.195 and the “minimum inhibitory concentration (MIC)” value ([10]; 1 × 10^6 cells/ml) was less than 0.048. The “minimum inhibitory concentration (MIC)” value ([10]; 1 × 10^8 cells/ml) was less than 0.048, the “minimum inhibitory concentration (MIC)” value ([11]; 1 × 10^6 cells/ml) was less than 0.048 and the “minimum inhibitory concentration (MIC)” value ([11]; 1 × 10^8 cells/ml) was 0.097. For the same compound, the “minimum inhibitory concentration (MIC)” value ([12]; 1 × 10^6 cells/ml) was 0.097 and the “minimum inhibitory concentration (MIC)” value ([12]; 1 × 10^8 cells/ml) was 0.195.
